According to article PMC12400448 (Chemical Science, 2025):

Target: alkaline phosphatase (ALP)
Test: fluorescence enzyme inhibition assay with compd. […] as substrate
Type: biochemical

[O]=[V]([OH])([OH])[OH] [sodium orthovanadate]
IC50: 10.2 µM
